Measurements published in patent US20060069132A1, “Azolecarboxamide herbicides” (priority 2004, published 2006).

Legend:
[1] = tested on: barnyardgrass; assay: Test A pre-/postemergence herbicide test; type: in vivo, Echinochloa crus-galli; conditions: for Plant response rating, Barnyardgrass: Postemergence; for Barnyardgrass plant response rating: Preemergence
Summary of the method: (§1)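 Pre: seeded sandy loam, directed soil spray, compound in non-phytotoxic solvent + surfactant. Post: 1–2-leaf plants (2–10 cm), sprayed to runoff. Greenhouse ~10 d; visual injury vs untreated, 0–100 scale.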

[2] = tested on: large crabgrass; assay: Test A pre-/postemergence herbicide test; type: in vivo, Digitaria sanguinalis; conditions: for Plant response rating, Crabgrass, Large: Postemergence; for Crabgrass, Large plant response rating: Preemergence
Summary of the method: as §1

[3] = tested on: giant foxtail; assay: Test A pre-/postemergence herbicide test; type: in vivo, Setaria faberi; conditions: for Plant response rating, Foxtail, Giant: Postemergence; for Foxtail, Giant plant response rating: Preemergence
Summary of the method: as §1

[4] = tested on: morningglory; assay: Test A pre-/postemergence herbicide test; type: in vivo, Ipomoea spp.; conditions: for Plant response rating, Morningglory: Postemergence; for Morningglory plant response rating: Preemergence
Summary of the method: as §1

[5] = tested on: redroot pigweed; assay: Test A pre-/postemergence herbicide test; type: in vivo, Amaranthus retroflexus; conditions: for Plant response rating, Pigweed: Postemergence; for Pigweed plant response rating: Preemergence
Summary of the method: as §1

[6] = tested on: velvetleaf; assay: Test A pre-/postemergence herbicide test; type: in vivo, Abutilon theophrasti; conditions: for Velvetleaf plant response rating: Preemergence, visual rating, 0 to 100 scale (0 no effect, 100 complete control)
Summary of the method: as §1

[7] = tested on: barnyardgrass; assay: Test B pre-/postemergence herbicide test; type: in vivo, Echinochloa crus-galli
Summary of the method: (§2)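 Test chemicals in a non-phytotoxic solvent mixture with surfactant were applied preemergence to seeded species and postemergence to plants 2-18 cm tall (1- to 4-leaf stage); rice and barnyardgrass were also tested in a flooded paddy at the 2-leaf stage. Visual rating versus controls after 13-15 days in greenhouse, scale 0 (no effect) to 100 (complete control).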

[8] = tested on: Surinam grass; assay: Test B pre-/postemergence herbicide test; type: in vivo, Urochloa decumbens
Summary of the method: (§3)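 Herbicidal effect was judged by eye on a 0–100 scale after plants stood 13 to 15 days in the greenhouse following pre- or postemergence treatment with surfactant-containing formulations.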

[9] = tested on: cocklebur; assay: Test B pre-/postemergence herbicide test; type: in vivo, Xanthium strumarium
Summary of the method: as §2

[10] = tested on: corn; assay: Test B pre-/postemergence herbicide test; type: in vivo, Zea mays
Summary of the method: as §3

[11] = tested on: large crabgrass; assay: Test B pre-/postemergence herbicide test; type: in vivo, Digitaria sanguinalis
Summary of the method: as §3

[12] = tested on: giant foxtail; assay: Test B pre-/postemergence herbicide test; type: in vivo, Setaria faberi
Summary of the method: as §3

[13] = tested on: lambsquarters; assay: Test B pre-/postemergence herbicide test; type: in vivo, Chenopodium album
Summary of the method: as §3

[14] = tested on: morningglory; assay: Test B pre-/postemergence herbicide test; type: in vivo, Ipomoea coccinea
Summary of the method: as §2

[15] = tested on: pigweed; assay: Test B pre-/postemergence herbicide test; type: in vivo, Amaranthus retroflexus
Summary of the method: as §3

[16] = tested on: rice; assay: Test B pre-/postemergence herbicide test; type: in vivo, Oryza sativa; conditions: preemergence, 125 g ai/ha; 0 to 100 scale, 0 is no effect, 100 is complete control
Summary of the method: as §3

[17] = tested on: velvetleaf; assay: Test B pre-/postemergence herbicide test; type: in vivo, Abutilon theophrasti
Summary of the method: as §3

[18] = tested on: blackgrass; assay: Test B postemergence herbicide test; type: in vivo, Alopecurus myosuroides; conditions: scale 0 (no effect) to 100 (complete control)
Summary of the method: (§4)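 Paddy species grown to the 2-leaf stage under flooding; blackgrass sprayed postemergence at 2–18 cm (1- to 4-leaf stage). Plants kept in a greenhouse for 13 to 15 days, then visually rated against controls on 0 (no effect) to 100 (complete control).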

[19] = tested on: wheat; assay: Test B postemergence herbicide test; type: in vivo, Triticum aestivum; design: key to Wheat plant response rating: 0 = no effect, 100 = complete control; conditions: scale 0 (no effect) to 100 (complete control)
Summary of the method: (§5)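 Postemergence plants were sprayed with formulated test chemicals at 2 to 18 cm height (1- to 4-leaf stage); paddy species were grown to the 2-leaf stage. After 13 to 15 days in a greenhouse, injury was rated visually against untreated controls on a 0–100 scale (0 = no effect, 100 = complete control).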

[20] = tested on: wild oat; assay: Test B postemergence herbicide test; type: in vivo, Avena fatua; conditions: scale 0 (no effect) to 100 (complete control)
Summary of the method: as §5

[21] = tested on: rice; assay: Test B flooded paddy test; type: in vivo, Oryza sativa; conditions: 1000 g ai/ha, visual rating, scale 0 to 100 (0 no effect, 100 complete control), 13 to 15 days
Summary of the method: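 Treated at 2-leaf (paddy) or 1–4-leaf, 2–18 cm (postemergence); greenhouse 13–15 d; visual score vs control, 0 none to 100 complete control; dash = not tested.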

[22] = tested on: small flower umbrella sedge; assay: Test B flooded paddy test; type: in vivo, Cyperus difformis; conditions: 1000 g ai/ha, visual rating, scale 0 to 100 (0 no effect, 100 complete control), 13 to 15 days
Summary of the method: as §4

[23] = tested on: ducksalad; assay: Test B flooded paddy test; type: in vivo, Heteranthera limosa; conditions: 1000 g ai/ha, visual rating, scale 0 to 100 (0 no effect, 100 complete control), 13 to 15 days
Summary of the method: as §4

[24] = tested on: barnyardgrass; assay: Test B flooded paddy test; type: in vivo, Echinochloa crus-galli; conditions: 1000 g ai/ha, visual rating, scale 0 to 100 (0 no effect, 100 complete control), 13 to 15 days
Summary of the method: as §4

[25] = 500 g ai/ha, 0 to 100 scale, 0 no effect, 100 complete control
[26] = 2000 g ai/ha, 0 to 100 scale, 0 no effect, 100 complete control
[27] = 500 g ai/ha, visual rating, 0 to 100 scale (0 no effect, 100 complete control)
[28] = Postemergence, 500 g ai/ha, visual rating after 13 to 15 days, scale 0 (no effect) to 100 (complete control)
[29] = Preemergence, 500 g ai/ha, scale 0 to 100
[30] = postemergence, 125 g ai/ha, visual rating, scale 0 (no effect) to 100 (complete control)
[31] = preemergence, 125 g ai/ha, 0 to 100 scale, 0 is no effect, 100 is complete control
[32] = Postemergence, 500 g ai/ha, visual rating after 13 to 15 days
[33] = postemergence, 125 g ai/ha, visual rating

SMILES: CCn1nc(C(C)(C)C)cc1C(=O)Nc1cccc2c1CCN(C1CCCC1)C2=O [Compound 66]
- Plant response rating, Barnyardgrass [1, 25]: 0
- Plant response rating, Barnyardgrass [1, 26]: 0
- Barnyardgrass plant response rating [1, 27]: 0
- Barnyardgrass plant response rating [1, 26]: 20
- Plant response rating, Crabgrass, Large [2, 25]: 0
- Plant response rating, Crabgrass, Large [2, 26]: 0
- Crabgrass, Large plant response rating [2, 27]: 0
- Crabgrass, Large plant response rating [2, 26]: 0
- Plant response rating, Foxtail, Giant [3, 25]: 0
- Plant response rating, Foxtail, Giant [3, 26]: 0
- Foxtail, Giant plant response rating [3, 27]: 0
- Foxtail, Giant plant response rating [3, 26]: 0
- Plant response rating, Morningglory [4, 25]: 0
- Plant response rating, Morningglory [4, 26]: 0
- Morningglory plant response rating [4, 27]: 0
- Morningglory plant response rating [4, 26]: 0
- Plant response rating, Pigweed [5, 25]: 10
- Plant response rating, Pigweed [5, 26]: 10
- Pigweed plant response rating [5, 27]: 0
- Pigweed plant response rating [5, 26]: 0
- Plant response rating, Velvetleaf ([6]; Postemergence, 2000 g ai/ha, 0 to 100 scale, 0 no effect, 100 complete control): 0
- Velvetleaf plant response rating ([6]; 500 g ai/ha): 0
- Velvetleaf plant response rating ([6]; 2000 g ai/ha): 0
- Plant response rating, Barnyardgrass [7, 28]: 10
- Barnyardgrass plant response rating [7, 29]: 30
- Barnyardgrass plant response rating [7, 30]: 0
- Plant response rating, Barnyardgrass [7, 31]: 0
- Plant response rating, Surinam Grass [8, 28]: 10
- Surinam Grass plant response rating [8, 30]: 10
- Plant response rating, Surinam Grass [8, 31]: 0
- Plant response rating, Cocklebur [9, 28]: 30
- Cocklebur plant response rating [9, 29]: 0
- Cocklebur plant response rating [9, 30]: 20
- Plant response rating, Cocklebur [9, 31]: 0
- Plant response rating, Corn [10, 28]: 20
- Corn plant response rating [10, 29]: 0
- Corn plant response rating [10, 30]: 10
- Plant response rating, Corn [10, 31]: 0
- Plant response rating, Crabgrass, Large [11, 28]: 10
- Crabgrass, Large plant response rating [11, 29]: 10
- Crabgrass, Large plant response rating [11, 30]: 0
- Plant response rating, Crabgrass, Large [11, 31]: 0
- Plant response rating, Foxtail, Giant [12, 28]: 20
- Foxtail, Giant plant response rating [12, 29]: 10
- Foxtail, Giant plant response rating [12, 30]: 0
- Plant response rating, Foxtail, Giant [12, 31]: 0
- Plant response rating, Lambsquarters [13, 28]: 70
- Lambsquarters plant response rating [13, 30]: 60
- Plant response rating, Lambsquarters [13, 31]: 0
- Plant response rating, Morningglory [14, 28]: 20
- Morningglory plant response rating [14, 30]: 20
- Plant response rating, Morningglory [14, 31]: 0
- Plant response rating, Pigweed [15, 28]: 30
- Pigweed plant response rating [15, 30]: 20
- Plant response rating, Pigweed [15, 31]: 0
- Plant response rating, Rice [16]: 0
- Plant response rating, Velvetleaf [17, 28]: 10
- Velvetleaf plant response rating [17, 30]: 10
- Plant response rating, Velvetleaf [17, 31]: 0
- Plant response rating, Blackgrass [18, 32]: 20
- Blackgrass plant response rating [18, 33]: 0
- Plant response rating, Wheat [19, 32]: 10
- Wheat plant response rating [19, 33]: 0
- Plant response rating, Oat, Wild [20, 32]: 10
- Oat, Wild plant response rating [20, 33]: 10
- Rice plant response rating [21]: 0
- Sedge, Umbrella plant response rating [22]: 10
- Ducksalad plant response rating [23]: 0
- Barnyardgrass plant response rating [24]: 10
